From patent publication US12091405B2, “Substituted pyrazole compounds as indoleamine 2,3-dioxygenase inhibitors” (Merck Sharp & Dohme LLC, priority 2018, dated 2024)

molecular target: IDO1 (Homo sapiens, UniProt P14902); assay: IDO1 Cellular Assay in HeLa Cells Stimulated with IFNγ; type: cell-based; settings: IFNγ 100 ng/mL, 300 uM L-tryptophan, about 48 hours, fluorescence readout, read-out: IDO1 HELA Cell Assay, IC50
Sequence (P14902 whole entry): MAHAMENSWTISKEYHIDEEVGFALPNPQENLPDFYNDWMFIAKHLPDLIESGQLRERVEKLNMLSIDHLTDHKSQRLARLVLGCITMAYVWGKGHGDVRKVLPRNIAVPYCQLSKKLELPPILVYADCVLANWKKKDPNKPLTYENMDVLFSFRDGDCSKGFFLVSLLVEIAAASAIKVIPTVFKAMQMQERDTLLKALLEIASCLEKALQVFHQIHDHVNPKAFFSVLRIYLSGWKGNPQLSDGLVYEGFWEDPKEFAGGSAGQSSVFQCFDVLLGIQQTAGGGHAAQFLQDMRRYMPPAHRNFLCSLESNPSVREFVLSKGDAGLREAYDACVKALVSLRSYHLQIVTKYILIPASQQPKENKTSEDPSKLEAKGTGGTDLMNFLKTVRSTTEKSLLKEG

Row | Compound | IC50 [nM]
1 | Cc1ccc(C2CCN(C(=O)Cn3nc(C(=O)N4C[C@@H](C)O[C@@H](C)C4)c4c3CCC4)CC2)cc1C(F)(F)F [Example 120, 2-{3-[(2R,6S)-2,6-dimethylmorpholine-4-carbonyl]-5,6-dihydrocyclopenta[c]pyrazol-1(4H)-yl}-1-{4-[4-methyl-3-(trifluoromethyl)phenyl]piperidin-1-yl}ethan-1-one] | 52.5
2 | C[C@@H]1CN(C(=O)c2nn(CC(=O)N3CCC(c4cccc(F)c4F)CC3)c3c2CCC3)C[C@H](C)O1 [Example 121, 1-[4-(2,3-difluorophenyl)piperidin-1-yl]-2-{3-[(2R,6S)-2,6-dimethylmorpholine-4-carbonyl]-5,6-dihydrocyclopenta[c]pyrazol-1(4H)-yl}ethan-1-one] | 53.2
3 | Cc1c(Cl)cc(Cl)cc1C1CCN(C(=O)Cn2nc(C(=O)N3C[C@@H](C)O[C@@H](C)C3)c3c2CCC3)CC1 [Example 122, 1-[4-(3,5-dichloro-2-methylphenyl)piperidin-1-yl]-2-{3-[(2R,6S)-2,6-dimethylmorpholine-4-carbonyl]-5,6-dihydrocyclopenta[c]pyrazol-1(4H)-yl}ethan-1-one] | 54.5
4 | C[C@@H]1CN(C(=O)c2nn(CC(=O)N3CCC(c4ccc(Cl)c(Cl)c4)CC3)c3c2CCC3)C[C@H](C)O1 [Example 123, 1-[4-(3,4-dichlorophenyl)piperidin-1-yl]-2-{3-[(2R,6S)-2,6-dimethylmorpholine-4-carbonyl]-5,6-dihydrocyclopenta[c]pyrazol-1(4H)-yl}ethan-1-one] | 54.5
5 | C[C@@H]1CN(C(=O)c2nn(CC(=O)N3CCC(c4ccc(F)cc4Cl)CC3)c3c2CCC3)C[C@H](C)O1 [Example 124, 1-[4-(2-chloro-4-fluorophenyl)piperidin-1-yl]-2-{3-[(2R,6S)-2,6-dimethylmorpholine-4-carbonyl]-5,6-dihydrocyclopenta[c]pyrazol-1(4H)-yl}ethan-1-one] | 57
6 | C[C@@H]1CN(C(=O)c2nn(CC(=O)N3CCC(c4cccc(C5(C)CC5)c4)CC3)c3c2CCC3)C[C@H](C)O1 [Example 125, 2-{3-[(2R,6S)-2,6-dimethylmorpholine-4-carbonyl]-5,6-dihydrocyclopenta[c]pyrazol-1(4H)-yl}-1-{4-[3-(1-methylcyclopropyl)phenyl]piperidin-1-yl}ethan-1-one] | 57.7
7 | Cc1ccc(C2CCN(C(=O)Cn3nc(C(=O)N4C[C@@H](C)O[C@@H](C)C4)c4c3CCC4)CC2)cc1 [Example 127, 2-{3-[(2R,6S)-2,6-dimethylmorpholine-4-carbonyl]-5,6-dihydrocyclopenta[c]pyrazol-1(4H)-yl}-1-[4-(4-methylphenyl)piperidin-1-yl]ethan-1-one] | 61.1
8 | Cc1c(C#N)cccc1C1CCN(C(=O)Cn2nc(C(=O)N3C[C@@H](C)O[C@@H](C)C3)c3c2CCC3)CC1 [Example 129, 3-[1-({3-[(2R,6S)-2,6-dimethylmorpholine-4-carbonyl]-5,6-dihydrocyclopenta[c]pyrazol-1(4H)-yl}acetyl)piperidin-4-yl]-2-methylbenzonitrile] | 64.1
9 | C[C@@H]1CN(C(=O)c2nn(CC(=O)N3CCC(c4cccc(F)c4)CC3)c3c2CCC3)C[C@H](C)O1 [Example 130, 2-{3-[(2R,6S)-2,6-dimethylmorpholine-4-carbonyl]-5,6-dihydrocyclopenta[c]pyrazol-1(4H)-yl}-1-[4-(3-fluorophenyl)piperidin-1-yl]ethan-1-one] | 66.1
10 | C[C@@H]1CN(C(=O)c2nn(CC(=O)N3CCC(c4ccc(C5CC5)cc4)CC3)c3c2CCC3)C[C@H](C)O1 [Example 131, 1-[4-(4-cyclopropylphenyl)piperidin-1-yl]-2-{3-[(2R,6S)-2,6-dimethylmorpholine-4-carbonyl]-5,6-dihydrocyclopenta[c]pyrazol-1(4H)-yl}ethan-1-one] | 77.9
11 | C[C@@H]1CN(C(=O)c2nn(CC(=O)N3CCC(c4cc(F)c(F)c(F)c4Cl)CC3)c3c2CCC3)C[C@H](C)O1 [Example 132, 1-[4-(2-chloro-3,4,5-trifluorophenyl)piperidin-1-yl]-2-{3-[(2R,6S)-2,6-dimethylmorpholine-4-carbonyl]-5,6-dihydrocyclopenta[c]pyrazol-1(4H)-yl}ethan-1-one] | 80.2
12 | C[C@@H]1CN(C(=O)c2nn(CC(=O)N3CCC(c4ccc(F)c(C(F)F)c4)CC3)c3c2CCC3)C[C@H](C)O1 [Example 133, 1-{4-[3-(difluoromethyl)-4-fluorophenyl]piperidin-1-yl}-2-{3-[(2R,6S)-2,6-dimethylmorpholine-4-carbonyl]-5,6-dihydrocyclopenta[c]pyrazol-1(4H)-yl}ethan-1-one] | 81.7
13 | C[C@@H]1CN(C(=O)c2nn(CC(=O)N3CCC(c4ccc(Cl)cc4F)CC3)c3c2CCC3)C[C@H](C)O1 [Example 135, 1-[4-(4-chloro-2-fluorophenyl)piperidin-1-yl]-2-{3-[(2R,6S)-2,6-dimethylmorpholine-4-carbonyl]-5,6-dihydrocyclopenta[c]pyrazol-1(4H)-yl}ethan-1-one] | 83.4
14 | Cc1cc(C)c(C2CCN(C(=O)Cn3nc(C(=O)N4C[C@@H](C)O[C@@H](C)C4)c4c3CCC4)CC2)cc1C [Example 136, 2-{3-[(2R,6S)-2,6-dimethylmorpholine-4-carbonyl]-5,6-dihydrocyclopenta[c]pyrazol-1(4H)-yl}-1-[4-(2,4,5-trimethylphenyl)piperidin-1-yl]ethan-1-one] | 85
15 | COc1ccc(C2CCN(C(=O)Cn3nc(C(=O)N4C[C@@H](C)O[C@@H](C)C4)c4c3CCC4)CC2)c(C)c1C [Example 138, 2-{3-[(2R,6S)-2,6-dimethylmorpholine-4-carbonyl]-5,6-dihydrocyclopenta[c]pyrazol-1(4H)-yl}-1-[4-(4-methoxy-2,3-dimethylphenyl)piperidin-1-yl]ethan-1-one] | 87.6
16 | C[C@@H]1CN(C(=O)c2nn(CC(=O)N3CCC(c4ccc(C(F)F)cc4F)CC3)c3c2CCC3)C[C@H](C)O1 [Example 142, 1-{4-[4-(difluoromethyl)-2-fluorophenyl]piperidin-1-yl}-2-{3-[(2R,6S)-2,6-dimethylmorpholine-4-carbonyl]-5,6-dihydrocyclopenta[c]pyrazol-1(4H)-yl}ethan-1-one] | 99.5
17 | [2H]c1c([2H])c([2H])c(C2CCN(C(=O)Cn3nc(C(=O)N4C[C@@H](C)O[C@@H](C)C4)c4c3CCC4)CC2)c([2H])c1[2H] [Example 143, 2-{3-[(2R,6S)-2,6-dimethylmorpholine-4-carbonyl]-5,6-dihydrocyclopenta[c]pyrazol-1(4H)-yl}-1-[4-(~2~H_5_)phenylpiperidin-1-yl]ethan-1-one] | 102
18 | C[C@@H]1CN(C(=O)c2nn(CC(=O)N3CCC(c4ccccc4F)CC3)c3c2CCC3)C[C@H](C)O1 [Example 145, 2-{3-[(2R,6S)-2,6-dimethylmorpholine-4-carbonyl]-5,6-dihydrocyclopenta[c]pyrazol-1(4H)-yl}-1-[4-(2-fluorophenyl)piperidin-1-yl]ethan-1-one] | 106

Further lines, results first:

Row | IC50 [nM] | Compound
19 | 59 | C[C@@H]1CN(C(=O)c2nn(CC(=O)N3CCC(c4cc(F)c(F)c(F)c4)CC3)c3c2CCC3)C[C@H](C)O1 [Example 126, 2-{3-[(2R,6S)-2,6-dimethylmorpholine-4-carbonyl]-5,6-dihydrocyclopenta[c]pyrazol-1(4H)-yl}-1-[4-(3,4,5-trifluorophenyl)piperidin-1-yl]ethan-1-one]
20 | 64.1 | C[C@@H]1CN(C(=O)c2nn(CC(=O)N3CCC(c4ccc(F)c(F)c4F)CC3)c3c2CCC3)C[C@H](C)O1 [Example 128, 2-{3-[(2R,6S)-2,6-dimethylmorpholine-4-carbonyl]-5,6-dihydrocyclopenta[c]pyrazol-1(4H)-yl}-1-[4-(2,3,4-trifluorophenyl)piperidin-1-yl]ethan-1-one]
21 | 82.1 | COc1c(F)cc(C2CCN(C(=O)Cn3nc(C(=O)N4C[C@@H](C)O[C@@H](C)C4)c4c3CCC4)CC2)cc1F [Example 134, 1-[4-(3,5-difluoro-4-methoxyphenyl)piperidin-1-yl]-2-{3-[(2R,6S)-2,6-dimethylmorpholine-4-carbonyl]-5,6-dihydrocyclopenta[c]pyrazol-1(4H)-yl}ethan-1-one]
22 | 85 | COc1ccc(C2CCN(C(=O)Cn3nc(C(=O)N4C[C@@H](C)O[C@@H](C)C4)c4c3CCC4)CC2)c(F)c1 [Example 137, 2-{3-[(2R,6S)-2,6-dimethylmorpholine-4-carbonyl]-5,6-dihydrocyclopenta[c]pyrazol-1(4H)-yl}-1-[4-(2-fluoro-4-methoxyphenyl)piperidin-1-yl] ethan-1-one]
23 | 88.3 | Cc1cc(C2CCN(C(=O)Cn3nc(C(=O)N4C[C@@H](C)O[C@@H](C)C4)c4c3CCC4)CC2)cc(C)c1F [Example 139, 2-{3-[(2R,6S)-2,6-dimethylmorpholine-4-carbonyl]-5,6-dihydrocyclopenta[c]pyrazol-1(4H)-yl}-1-[4-(4-fluoro-3,5-dimethylphenyl)piperidin-1-yl] ethan-1-one]
24 | 89 | C[C@@H]1CN(C(=O)c2nn(CC(=O)N3CCC(c4ccc(C(F)F)c(F)c4)CC3)c3c2CCC3)C[C@H](C)O1 [Example 140, 1-{4-[4-(difluoromethyl)-3-fluorophenyl]piperidin-1-yl}-2-{3-[(2R,6S)-2,6-dimethylmorpholine-4-carbonyl]-5,6-dihydrocyclopenta[c]pyrazol-1(4H)-yl}ethan-1-one]
25 | 97.4 | C[C@@H]1CN(C(=O)c2nn(CC(=O)N3CCC(c4cc(F)cc(C(F)(F)F)c4)CC3)c3c2CCC3)C[C@H](C)O1 [Example 141, 2-{3-[(2R,6S)-2,6-dimethylmorpholine-4-carbonyl]-5,6-dihydrocyclopenta[c]pyrazol-1(4H)-yl}-1-{4-[3-fluoro-5-(trifluoromethyl)phenyl]piperidin-1-yl}ethan-1-one]
26 | 104 | C[C@@H]1CN(C(=O)c2nn(CC(=O)N3CCC(c4ccc(F)c(F)c4)CC3)c3c2CCC3)C[C@H](C)O1 [Example 144, 1-[4-(3,4-difluorophenyl)piperidin-1-yl]-2-{3-[(2R,6S)-2,6-dimethylmorpholine-4-carbonyl]-5,6-dihydrocyclopenta[c]pyrazol-1(4H)-yl}ethan-1-one]
